Laboratory results from paper PMC8036666, “Biological and Physico-Chemical Characteristics of Arginine-Rich Peptide Gemini Surfactants with Lysine and Cystine Spacers” (International Journal of Molecular Sciences, 2021).
≈ marks a conversion by molar mass, not a printed value. Like-named read-outs stand apart in the source and are kept apart here. Where a SMILES comes first, the peptide text is derived from it. Side-chain parts run from the residue outwards. The star is where a group is joined. Myristoyl = CCCCCCCCCCCCCC(=O)*; Lauroyl = CCCCCCCCCCCC(=O)*; Decanoyl = CCCCCCCCCC(=O)*; Octanoyl = CCCCCCCC(=O)*

Legend:
[1] = test system: Staphylococcus aureus ATCC 33591
Protocol: The Acinetobacter baumannii ATCC BAA-1605, Enterococcus faecium ATCC 700221, Escherichia coli ML-35 ATCC 43827, Klebsiella aerogenes ATCC 13048, Klebsiella pneumoniae ATCC 700603, Pseudomonas aeruginosa ATCC 9027, Staphylococcus aureus ATCC 25923, Staphylococcus aureus ATCC 33591, Candida albicans ATCC 10231, Candida glabrata ATCC 15126, strains were acquired from the American Type Culture Collection (ATCC). All the strains were stored at −80 °C in Roti-Store cryo vials and before the tests were transferred into fresh Mueller–Hinton broth (MHB, Biocorp, Warsaw, […], Steinheim, Germany) for fungi and incubated for 24 h at 37 °C. Then, the cultures were seeded on the Mueller–Hinton agar (BioMaxima, Lublin, Poland) or Sabouraud dextrose agar (SDA, BioMaxima, Lublin, Poland) plates, respectively, and incubated as just mentioned. These agar cultures were used for further microbiological assays. […]
(§1) The MICs were determined by the broth microdilution method according to the Clinical and Laboratory Standard Institute guidelines. […] The experiments were conducted on 96-well microtiter polystyrene plates (Kartell, Noviglio, Italy). The growth was assessed visually after incubation, and the MIC was assumed as the lowest peptide concentration at which a noticeable growth of microorganisms was inhibited. All experiments were conducted in triplicate.

[2] = test system: Acinetobacter baumannii ATCC BAA 1605; settings: ATCC BAA 1605, 24 h
Protocol: (§2) The Acinetobacter baumannii ATCC BAA-1605, Enterococcus faecium ATCC 700221, Escherichia coli ML-35 ATCC 43827, Klebsiella aerogenes ATCC 13048, Klebsiella pneumoniae ATCC 700603, Pseudomonas aeruginosa ATCC 9027, Staphylococcus aureus ATCC 25923, Staphylococcus aureus ATCC 33591, Candida albicans ATCC 10231, Candida glabrata ATCC 15126, strains were acquired from the American Type Culture Collection (ATCC). All the strains were stored at −80 °C in Roti-Store cryo vials and before the tests were transferred into fresh Mueller–Hinton broth (MHB, Biocorp, Warsaw, Poland) for bacteria or RPMI-1640 (Sigma-Aldrich, Steinheim, Germany) for fungi and incubated for 24 h at 37 °C. Then, the cultures were seeded on the Mueller–Hinton agar (BioMaxima, Lublin, Poland) or Sabouraud dextrose agar (SDA, BioMaxima, Lublin, Poland) plates, respectively, and incubated as just mentioned. These agar cultures were used for further microbiological assays. Cell densities for all assays were adjusted spectrophotometrically (Multiskan GO Microplate Spectrophotometer, Thermo Fisher Scientific, Vantaa, Finland) at 600 and 530 nm for bacteria and fungi, respectively.
as §1

[3] = test system: Enterococcus faecium ATCC 700221
Protocol: as §2, §1

[4] = test system: Klebsiella aerogenes ATCC 13048; settings: ATCC 13048, 24 h
Protocol: as §2, §1

[5] = test system: Klebsiella pneumoniae ATCC 700603; settings: ATCC 700603, 24 h
Protocol: as §2, §1

[6] = test system: Pseudomonas aeruginosa ATCC 9027
Protocol: as §2, §1

[7] = test system: Staphylococcus aureus ATCC 25923
Protocol: as §2, §1

[8] = test system: Acinetobacter baumannii ATCC BAA 1605; assay type: cell-based; settings: ATCC BAA 1605, 24 h
Protocol: (§3) Biofilm is associated with life-threating infections due to its outstanding resistance to antibiotics. In this study, the antibiofilm characteristics of USCLs and gemini surfactants were evaluated.
(§4) The MBECs were determined as described previously using 96-well polystyrene flat-bottom plates. For this purpose, 24 h cultures of microorganisms were diluted to obtain a final density of 5.0 × 10^5 CFU/mL and 2.0 × 10^5 CFU/mL of bacteria and fungi, respectively. Microorganisms were diluted in MHB or RPMI-1640 with 2% D-glucose (bacteria and fungi, respectively). Briefly, 100 µL of cell suspension was added into the test plates. After 24 h of incubation at 37 °C, the wells were rinsed three times with a PBS (pH 7.4) to remove non-adherent cells. Subsequently, 100 μL of the test compounds in a concentration range (1–512 μg/mL) were added to each well. After 24 h of incubation at 37 °C, 20 μL of a cell viability reagent was added (resazurin, 4 g/L; Sigma Aldrich, St. Louis, MO, USA). The MBEC was read after 1 h. The determined values were recorded as the lowest concentration at which the reduction of resazurin (from blue to pink) was lower or equal to 10 ± 0.5% as compared to the positive (100%) and negative (0%) controls. The reduction was monitored by measuring absorbance at 570 nm (reduced) and 600 nm (oxidized) using a microplate spectrophotometer (Multiskan GO Microplate Spectrophotometer, Thermo Fisher Scientific, Vantaa, Finland). All experiments were conducted in triplicate.

[9] = test system: Candida albicans ATCC 10231; assay type: cell-based; settings: ATCC 10231, 24 h
Protocol: as §3, §4

[10] = test system: Candida glabrata ATCC 15126; assay type: cell-based; settings: ATCC 15126, 24 h
Protocol: as §3, §4

[11] = test system: Enterococcus faecium ATCC 700221; assay type: cell-based; settings: ATCC 700221, 24 h
Protocol: as §3, §4

[12] = test system: Klebsiella aerogenes ATCC 13048; assay type: cell-based; settings: ATCC 13048, 24 h
Protocol: as §3, §4

[13] = test system: Klebsiella pneumoniae ATCC 700603; assay type: cell-based; settings: ATCC 700603, 24 h
Protocol: as §3, §4

[14] = test system: Pseudomonas aeruginosa ATCC 9027; assay type: cell-based; settings: ATCC 9027, 24 h
Protocol: as §3, §4

[15] = test system: Staphylococcus aureus ATCC 25923; assay type: cell-based; settings: ATCC 25923, 24 h
Protocol: as §3, §4

[16] = test system: Staphylococcus aureus ATCC 33591; assay type: cell-based; settings: ATCC 33591, 24 h
Protocol: as §3, §4

Structure (SMILES) | MIC Staphylococcus aureus ATCC 33591 ([1]; planktonic culture) | MIC Acinetobacter baumannii ATCC BAA 1605 [2] | MIC Enterococcus faecium ATCC 700221 ([3]; planktonic culture) | MIC Klebsiella aerogenes ATCC 13048 [4] | MIC Klebsiella pneumoniae ATCC 700603 [5] | MIC Pseudomonas aeruginosa ATCC 9027 ([6]; planktonic culture) | MIC Staphylococcus aureus ATCC 25923 ([7]; planktonic culture) | MBEC Acinetobacter baumannii ATCC BAA 1605 [8] | MBEC Candida albicans ATCC 10231 [9] | MBEC Candida glabrata ATCC 15126 [10] | MBEC Enterococcus faecium ATCC 700221 [11] | MBEC Klebsiella aerogenes ATCC 13048 [12] | MBEC Klebsiella pneumoniae ATCC 700603 [13] | MBEC Pseudomonas aeruginosa ATCC 9027 [14] | MBEC Staphylococcus aureus ATCC 25923 [15] | MBEC Staphylococcus aureus ATCC 33591 [16] | MIC Staphylococcus aureus ATCC 33591 ([1]; ATCC 33591, 24 h) | MIC Enterococcus faecium ATCC 700221 ([3]; ATCC 700221, 24 h) | MIC Pseudomonas aeruginosa ATCC 9027 ([6]; ATCC 9027, 24 h) | MIC Staphylococcus aureus ATCC 25923 ([7]; ATCC 25923, 24 h)
CCCCCCCC(=O)N[C@@H](CCCNC(=N)N)C(=O)N[C@@H](CCCNC(=N)N)C(N)=O [Compound A1, C8-RR-NH2] (Octanoyl-Arg-Arg-NH2) | >256 (−/−) µg/mL | >256 (−/−) µg/mL | >256 (−/−) µg/mL | >256 (−/−) µg/mL | >256 (−/−) µg/mL | >256 (−/−) µg/mL | >256 (−/−) µg/mL | >512 µg/mL | >512 µg/mL | >512 µg/mL | >512 µg/mL | >512 µg/mL | >512 µg/mL | >512 µg/mL | >512 µg/mL | >512 µg/mL |  |  |  | 
CCCCCCCCCC(=O)N[C@@H](CCCNC(=N)N)C(=O)N[C@@H](CCCNC(=N)N)C(N)=O [Compound A2, C10-RR-NH2] (Decanoyl-Arg-Arg-NH2) | 256 (−/−) µg/mL | >256 (−/−) µg/mL | 256 (−/−) µg/mL | >256 (−/−) µg/mL | >256 (−/−) µg/mL | >256 (−/−) µg/mL | 256 (−/−) µg/mL | >512 µg/mL | 512 µg/mL | >512 µg/mL | 512 µg/mL | >512 µg/mL | >512 µg/mL | >512 µg/mL | 512 µg/mL | 512 µg/mL |  |  |  | 
CCCCCCCCCCCC(=O)N[C@@H](CCCNC(=N)N)C(=O)N[C@@H](CCCNC(=N)N)C(N)=O [Compound A3, C12-RR-NH2] (Lauroyl-Arg-Arg-NH2) |  | 256 (−/−) µg/mL |  | >256 (−/−) µg/mL | >256 (−/−) µg/mL |  |  | 512 µg/mL | 128 µg/mL | 512 µg/mL | 32 µg/mL | 512 µg/mL | 512 µg/mL | 512 µg/mL | 64 µg/mL | 64 µg/mL | 32 µg/mL (≈ 62.5 µM) | 32 µg/mL (≈ 62.5 µM) | 128 µg/mL (≈ 250 µM) | 32 µg/mL (≈ 62.5 µM)
CCCCCCCCCCCCCC(=O)N[C@@H](CCCNC(=N)N)C(=O)N[C@@H](CCCNC(=N)N)C(N)=O [Compound A4, C14-RR-NH2] (Myristoyl-Arg-Arg-NH2) |  | 64 µg/mL (≈ 119 µM) |  | 256 (−/−) µg/mL | 256 (−/−) µg/mL |  |  | 256 µg/mL | 64 µg/mL | 256 µg/mL | 8 µg/mL | 256 µg/mL | 256 µg/mL | 512 µg/mL | 16 µg/mL | 8 µg/mL | 8 µg/mL (≈ 14.8 µM) | 8 µg/mL (≈ 14.8 µM) | 32 µg/mL (≈ 59.3 µM) | 8 µg/mL (≈ 14.8 µM)
CCCCCCCC(=O)N[C@@H](CCCNC(=N)N)C(=O)N[C@@H](CCCNC(=N)N)C(=O)NCCCC[C@H](NC(=O)[C@H](CCCNC(=N)N)NC(=O)[C@H](CCCNC(=N)N)NC(=O)CCCCCCC)C(N)=O [Compound B1] (Octanoyl-Arg-Arg-Lys([Arg-Arg-Octanoyl])-NH2) |  | 256 (−/−) µg/mL |  | >256 (−/−) µg/mL | >256 (−/−) µg/mL |  |  | 512 µg/mL | 256 µg/mL | >512 µg/mL | 128 µg/mL | >512 µg/mL | >512 µg/mL | 512 µg/mL | 32 µg/mL | 32 µg/mL | 8 µg/mL (≈ 7.83 µM) | 64 µg/mL (≈ 62.6 µM) | 32 µg/mL (≈ 31.3 µM) | 4 µg/mL (≈ 3.91 µM)
CCCCCCCCCC(=O)N[C@@H](CCCNC(=N)N)C(=O)N[C@@H](CCCNC(=N)N)C(=O)NCCCC[C@H](NC(=O)[C@H](CCCNC(=N)N)NC(=O)[C@H](CCCNC(=N)N)NC(=O)CCCCCCCCC)C(N)=O [Compound B2] (Decanoyl-Arg-Arg-Lys([Arg-Arg-Decanoyl])-NH2) |  | 8 µg/mL (≈ 7.42 µM) |  | 128 µg/mL (≈ 119 µM) | 128 µg/mL (≈ 119 µM) |  |  | 128 µg/mL | 32 µg/mL | 512 µg/mL | 4 µg/mL | 256 µg/mL | 256 µg/mL | 512 µg/mL | 8 µg/mL | 4 µg/mL | 1 µg/mL (≈ 0.927 µM) | 2 µg/mL (≈ 1.85 µM) | 8 µg/mL (≈ 7.42 µM) | 1 µg/mL (≈ 0.927 µM)
